Reference: ChEMBL document CHEMBL1201862, “PubChem BioAssay data set” (2004)
The source made the active and inactive calls.

What was measured:
[1] = target: Delta-type opioid receptor (Homo sapiens, UniProt P41143); test: Counterscreen for agonists of heterodimerization of the mu 1 (OPRM1) and delta 1 (OPRD1) opioid receptors: Luminescence-based cell-based high throughput dose response assay to identify agonists of OPRD1 homodimerization. [Related pubchem assays (depositor defined):AID504326, AID504355, AID504692, AID504904, AID504905]; assay type: functional
Delta-type opioid receptor, sequence (P41143 whole entry): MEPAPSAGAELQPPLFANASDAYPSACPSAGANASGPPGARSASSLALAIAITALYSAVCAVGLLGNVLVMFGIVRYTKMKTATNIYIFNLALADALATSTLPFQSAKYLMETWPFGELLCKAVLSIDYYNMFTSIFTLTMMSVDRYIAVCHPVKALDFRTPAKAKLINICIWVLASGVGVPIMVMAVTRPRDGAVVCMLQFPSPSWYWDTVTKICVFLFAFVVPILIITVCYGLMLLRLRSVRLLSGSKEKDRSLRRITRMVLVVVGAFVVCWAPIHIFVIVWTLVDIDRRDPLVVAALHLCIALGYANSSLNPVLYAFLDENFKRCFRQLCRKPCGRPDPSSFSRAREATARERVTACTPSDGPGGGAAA

Mu-type opioid receptor = Mu-type opioid receptor (Homo sapiens, UniProt P35372); test: Counterscreen for agonists of heterodimerization of the mu 1 (OPRM1) and delta 1 (OPRD1) opioid receptors: Luminescence-based cell-based high throughput dose response assay to identify agonists of OPRM1 homodimerization.; assay type: functional;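 further: U2OS cells expressing OPRM1 and beta-arrestin as split beta-galactosidase partners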
Mu-type opioid receptor, sequence (P35372 whole entry): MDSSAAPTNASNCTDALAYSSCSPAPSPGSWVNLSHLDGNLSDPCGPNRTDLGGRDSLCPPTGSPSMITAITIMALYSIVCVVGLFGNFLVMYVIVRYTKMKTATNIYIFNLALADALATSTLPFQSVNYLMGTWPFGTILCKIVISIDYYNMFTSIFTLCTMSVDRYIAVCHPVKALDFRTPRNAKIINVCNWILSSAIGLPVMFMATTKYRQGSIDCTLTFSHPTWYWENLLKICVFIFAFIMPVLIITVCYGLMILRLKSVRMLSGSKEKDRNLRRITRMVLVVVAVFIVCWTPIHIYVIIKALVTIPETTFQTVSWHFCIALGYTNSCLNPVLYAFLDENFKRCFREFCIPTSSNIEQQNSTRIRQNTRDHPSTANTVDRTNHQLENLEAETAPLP

[2] = target: 5-hydroxytryptamine receptor 5A (Homo sapiens, UniProt P47898); test: Counterscreen for agonists of OPRM1-OPRD1 heterodimerization: luminescence-based cell-based high throughput dose response assay to identify agonists of 5-hydroxytryptamine (serotonin) 5A receptor (HTR5A). [Related pubchem assays (depositor defined):AID504326, AID504355, AID504692, AID504904, AID504905]; assay type: functional
5-hydroxytryptamine receptor 5A, sequence (P47898 whole entry): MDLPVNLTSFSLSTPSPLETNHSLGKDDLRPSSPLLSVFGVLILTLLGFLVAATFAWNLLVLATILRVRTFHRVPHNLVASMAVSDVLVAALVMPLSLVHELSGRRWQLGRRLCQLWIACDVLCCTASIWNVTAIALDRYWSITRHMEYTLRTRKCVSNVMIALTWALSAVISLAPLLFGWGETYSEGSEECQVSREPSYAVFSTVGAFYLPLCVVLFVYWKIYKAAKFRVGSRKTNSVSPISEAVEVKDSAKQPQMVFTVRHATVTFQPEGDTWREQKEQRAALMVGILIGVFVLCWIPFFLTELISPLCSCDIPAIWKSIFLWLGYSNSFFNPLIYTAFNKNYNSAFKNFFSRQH

Cytochrome P450 2C9 = Cytochrome P450 2C9 (Homo sapiens, UniProt P11712)
Cytochrome P450 2C9, sequence (P11712 whole entry): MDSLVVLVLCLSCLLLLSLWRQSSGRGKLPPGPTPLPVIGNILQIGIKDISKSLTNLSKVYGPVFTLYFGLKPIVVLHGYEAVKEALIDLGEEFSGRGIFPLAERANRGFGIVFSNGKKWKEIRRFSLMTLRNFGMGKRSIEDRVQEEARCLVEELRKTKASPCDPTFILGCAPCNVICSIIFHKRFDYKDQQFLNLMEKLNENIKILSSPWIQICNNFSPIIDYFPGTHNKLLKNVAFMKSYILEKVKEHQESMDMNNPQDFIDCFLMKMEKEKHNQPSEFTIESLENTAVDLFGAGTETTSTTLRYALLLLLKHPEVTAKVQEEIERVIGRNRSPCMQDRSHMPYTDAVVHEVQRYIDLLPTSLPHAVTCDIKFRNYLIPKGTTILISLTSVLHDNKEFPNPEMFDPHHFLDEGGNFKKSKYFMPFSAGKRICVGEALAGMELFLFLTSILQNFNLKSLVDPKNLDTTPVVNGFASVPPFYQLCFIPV

Bcl-2-related protein A1 = target: T1, Bcl-2-related protein A1 (Mus musculus, UniProt Q07440); assay type: functional;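 further: confirmatory dose–response counterscreen on Bfl-1, used to check hits from a UBC13 polyubiquitin inhibitor campaign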
T1 sequence (Q07440 whole entry): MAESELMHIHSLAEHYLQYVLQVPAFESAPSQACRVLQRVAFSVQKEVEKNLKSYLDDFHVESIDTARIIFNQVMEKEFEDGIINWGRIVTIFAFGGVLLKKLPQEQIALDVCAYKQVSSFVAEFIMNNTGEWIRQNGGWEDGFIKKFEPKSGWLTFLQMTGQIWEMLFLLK

[3] = target: T2, Ubiquitin-conjugating enzyme E2 N (Homo sapiens, UniProt P61088); assay type: functional
T2 sequence (P61088 whole entry): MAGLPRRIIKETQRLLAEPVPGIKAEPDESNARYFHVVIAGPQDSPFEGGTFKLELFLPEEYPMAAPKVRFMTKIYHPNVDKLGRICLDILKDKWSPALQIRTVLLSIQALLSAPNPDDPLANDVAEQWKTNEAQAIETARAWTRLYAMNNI

[4] = target: T2, Ubiquitin-conjugating enzyme E2 N; assay type: functional; remark: listed apart in the source
[5] = target: T3, RNA-binding protein pos-1 (Caenorhabditis elegans, UniProt G5EF15); test: inhibitors of POS-1/mex-3 RNA binding, dose response, biochemical, fluorescence polarization (AID 1964);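 further: purified POS-1 fused to maltose binding protein made in E. coli; potency of compounds blocking POS-1 binding to fluorescent RNA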
T3 sequence (G5EF15 whole entry): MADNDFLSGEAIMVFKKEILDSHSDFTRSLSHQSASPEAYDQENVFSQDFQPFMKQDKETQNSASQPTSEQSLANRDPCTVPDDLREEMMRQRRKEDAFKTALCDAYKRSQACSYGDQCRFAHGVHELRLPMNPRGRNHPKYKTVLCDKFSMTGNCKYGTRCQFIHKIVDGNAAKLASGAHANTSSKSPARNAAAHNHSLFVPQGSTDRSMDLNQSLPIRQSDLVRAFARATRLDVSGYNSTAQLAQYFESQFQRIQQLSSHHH

[6] = test system: Streptococcus sp. 'group A'; test: growth inhibition of control SK(-) GAS strain, dose response, counter-screen for streptokinase expression inhibitor project, luminescence, kanamycin, BacTiterGlo, confirmation (AID 1900); assay type: functional, organism-based
[7] = A Cell Based Secondary Assay To Explore Cytotoxicity of Compounds that Sensitize Mycobacterium Tuberculosis to Beta-Lactam Antibiotics.; assay type: functional
[8] = target: T4, Zinc finger protein mex-5 (Caenorhabditis elegans, UniProt Q9XUB2); test: MEX-5/TCR-2 RNA interaction inhibitors, dose response, biochemical, C. elegans, fluorescence polarization (AID 1960)
T4 sequence (Q9XUB2 whole entry): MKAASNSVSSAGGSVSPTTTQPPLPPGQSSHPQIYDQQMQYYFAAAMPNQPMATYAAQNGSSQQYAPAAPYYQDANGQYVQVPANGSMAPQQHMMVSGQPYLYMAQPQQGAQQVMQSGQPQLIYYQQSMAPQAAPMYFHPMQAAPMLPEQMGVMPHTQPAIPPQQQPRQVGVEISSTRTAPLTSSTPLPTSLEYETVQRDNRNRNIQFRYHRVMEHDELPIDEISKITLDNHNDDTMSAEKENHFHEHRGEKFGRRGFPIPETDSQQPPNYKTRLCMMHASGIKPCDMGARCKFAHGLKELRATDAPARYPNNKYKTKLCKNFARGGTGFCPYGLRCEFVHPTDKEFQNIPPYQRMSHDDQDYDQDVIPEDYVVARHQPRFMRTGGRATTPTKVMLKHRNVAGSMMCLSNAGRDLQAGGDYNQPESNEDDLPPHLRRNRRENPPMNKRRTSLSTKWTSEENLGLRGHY

Streptokinase A = target: T5, Streptokinase A (Streptococcus pyogenes serotype M1, UniProt P10520); test: S. pyogenes streptokinase expression inhibitors, potency, dose response, plasminogen activation absorbance, OD405 (AID 1914); assay type: functional, Streptococcus pyogenes M1 GAS;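 further: secreted streptokinase activity via plasminogen activation per viability signal from cell pellet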
T5 sequence (P10520 whole entry): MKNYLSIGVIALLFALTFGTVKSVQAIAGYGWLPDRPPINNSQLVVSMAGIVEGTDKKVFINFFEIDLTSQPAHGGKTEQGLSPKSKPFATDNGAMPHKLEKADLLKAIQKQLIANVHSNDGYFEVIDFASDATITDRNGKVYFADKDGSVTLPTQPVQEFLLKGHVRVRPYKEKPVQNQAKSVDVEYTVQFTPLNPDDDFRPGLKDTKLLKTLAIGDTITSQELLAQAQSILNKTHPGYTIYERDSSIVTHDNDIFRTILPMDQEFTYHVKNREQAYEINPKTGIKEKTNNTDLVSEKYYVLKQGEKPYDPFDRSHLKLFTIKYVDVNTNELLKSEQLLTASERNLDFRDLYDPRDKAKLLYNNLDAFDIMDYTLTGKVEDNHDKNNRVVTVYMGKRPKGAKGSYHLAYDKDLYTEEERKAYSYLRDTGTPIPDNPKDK

Streptococcus = test: Group A Streptococcus viability loss, dose response, counter-screen for streptokinase expression inhibitor project, luminescence, BacTiterGlo (AID 1915); assay type: functional, organism-based;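 further: potency for reduction of bacterial viability or growth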
[9] = target: T6, Endoribonuclease toxin MazF (Escherichia coli K-12, UniProt P0AE70); test: MazF toxin RNase activators, dose response, biochemical, fluorescence, single-stranded RNA substrate, uHTS hits (AID 588481); assay type: functional
T6 sequence (P0AE70 whole entry): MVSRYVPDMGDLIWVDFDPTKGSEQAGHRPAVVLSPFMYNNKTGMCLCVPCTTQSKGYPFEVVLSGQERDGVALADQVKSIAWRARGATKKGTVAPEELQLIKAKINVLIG

[10] = target: T6, Endoribonuclease toxin MazF; test: fluorescent RNA oligo signal without MazF, dose response, counter-screen for MazEF activator project, biochemical, fluorescence, single-stranded RNase substrate (AID 588502); assay type: functional
[11] = target: T7, Calpain-2 catalytic subunit (Sus scrofa, UniProt P43367); test: pig calpain II inhibitor potency, dose response, biochemical, fluorogenic peptide substrate (AID 1420); assay type: functional
T7 sequence (P43367 whole entry): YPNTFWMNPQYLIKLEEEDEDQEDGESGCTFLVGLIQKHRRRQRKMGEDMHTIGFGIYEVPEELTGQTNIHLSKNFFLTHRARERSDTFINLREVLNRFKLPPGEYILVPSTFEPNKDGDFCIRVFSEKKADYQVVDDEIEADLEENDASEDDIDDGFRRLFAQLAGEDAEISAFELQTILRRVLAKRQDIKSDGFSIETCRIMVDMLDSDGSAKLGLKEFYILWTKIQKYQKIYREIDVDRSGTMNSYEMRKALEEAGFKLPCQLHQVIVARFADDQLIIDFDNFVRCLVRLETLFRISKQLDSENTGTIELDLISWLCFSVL

ORF 73 = target: T8, ORF 73 (Human herpesvirus 8, UniProt O40947); test: inhibitors of C-LANA binding to LBS DNA, dose response, biochemical, fluorescence polarization, cherry-picked samples (AID 504725); design: species or system Human gammaherpesvirus 8;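 further: fluorescence polarization of a labeled DNA duplex reporting LANA DNA binding; potency is for inhibitors that block LANA binding to the DNA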
T8 sequence (O40947 whole entry): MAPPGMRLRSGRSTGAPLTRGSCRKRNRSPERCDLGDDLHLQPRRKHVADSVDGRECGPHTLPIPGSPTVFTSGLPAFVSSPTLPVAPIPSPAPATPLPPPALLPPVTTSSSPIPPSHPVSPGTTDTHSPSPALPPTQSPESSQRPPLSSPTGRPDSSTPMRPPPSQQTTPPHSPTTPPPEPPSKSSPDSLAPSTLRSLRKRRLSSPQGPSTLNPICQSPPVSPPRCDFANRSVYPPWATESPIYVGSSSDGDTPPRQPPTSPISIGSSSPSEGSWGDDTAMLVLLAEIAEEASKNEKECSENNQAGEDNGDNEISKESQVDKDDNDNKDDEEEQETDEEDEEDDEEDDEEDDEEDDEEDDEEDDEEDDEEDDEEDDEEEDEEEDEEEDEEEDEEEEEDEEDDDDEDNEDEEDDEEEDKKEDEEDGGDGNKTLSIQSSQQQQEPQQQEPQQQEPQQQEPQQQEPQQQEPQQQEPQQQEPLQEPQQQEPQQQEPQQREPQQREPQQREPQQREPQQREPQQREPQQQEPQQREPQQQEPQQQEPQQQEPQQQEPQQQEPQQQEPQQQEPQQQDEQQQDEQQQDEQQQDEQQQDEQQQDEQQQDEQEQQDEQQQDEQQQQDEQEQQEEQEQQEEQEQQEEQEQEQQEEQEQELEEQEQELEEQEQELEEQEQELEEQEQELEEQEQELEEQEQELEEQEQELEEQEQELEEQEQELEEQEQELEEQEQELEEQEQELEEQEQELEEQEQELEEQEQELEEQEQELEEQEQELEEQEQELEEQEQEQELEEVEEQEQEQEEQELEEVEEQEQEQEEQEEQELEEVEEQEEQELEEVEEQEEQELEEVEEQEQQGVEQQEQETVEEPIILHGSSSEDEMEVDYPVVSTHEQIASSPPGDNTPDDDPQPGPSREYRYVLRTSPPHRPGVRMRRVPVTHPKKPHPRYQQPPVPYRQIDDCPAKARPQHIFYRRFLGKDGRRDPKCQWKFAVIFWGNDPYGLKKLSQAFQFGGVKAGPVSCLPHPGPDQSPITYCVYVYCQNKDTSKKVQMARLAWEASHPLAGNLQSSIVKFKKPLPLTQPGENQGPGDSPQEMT

[12] = target: T9, Short transient receptor potential channel 4 (Mus musculus, UniProt Q9QUQ5); test: mouse TRPC4 channel activators, dose response, cell-based, HEK293 TRPC4/mu-opioid, Fluo-4 calcium (AID 434937); assay type: functional
T9 sequence (Q9QUQ5 whole entry): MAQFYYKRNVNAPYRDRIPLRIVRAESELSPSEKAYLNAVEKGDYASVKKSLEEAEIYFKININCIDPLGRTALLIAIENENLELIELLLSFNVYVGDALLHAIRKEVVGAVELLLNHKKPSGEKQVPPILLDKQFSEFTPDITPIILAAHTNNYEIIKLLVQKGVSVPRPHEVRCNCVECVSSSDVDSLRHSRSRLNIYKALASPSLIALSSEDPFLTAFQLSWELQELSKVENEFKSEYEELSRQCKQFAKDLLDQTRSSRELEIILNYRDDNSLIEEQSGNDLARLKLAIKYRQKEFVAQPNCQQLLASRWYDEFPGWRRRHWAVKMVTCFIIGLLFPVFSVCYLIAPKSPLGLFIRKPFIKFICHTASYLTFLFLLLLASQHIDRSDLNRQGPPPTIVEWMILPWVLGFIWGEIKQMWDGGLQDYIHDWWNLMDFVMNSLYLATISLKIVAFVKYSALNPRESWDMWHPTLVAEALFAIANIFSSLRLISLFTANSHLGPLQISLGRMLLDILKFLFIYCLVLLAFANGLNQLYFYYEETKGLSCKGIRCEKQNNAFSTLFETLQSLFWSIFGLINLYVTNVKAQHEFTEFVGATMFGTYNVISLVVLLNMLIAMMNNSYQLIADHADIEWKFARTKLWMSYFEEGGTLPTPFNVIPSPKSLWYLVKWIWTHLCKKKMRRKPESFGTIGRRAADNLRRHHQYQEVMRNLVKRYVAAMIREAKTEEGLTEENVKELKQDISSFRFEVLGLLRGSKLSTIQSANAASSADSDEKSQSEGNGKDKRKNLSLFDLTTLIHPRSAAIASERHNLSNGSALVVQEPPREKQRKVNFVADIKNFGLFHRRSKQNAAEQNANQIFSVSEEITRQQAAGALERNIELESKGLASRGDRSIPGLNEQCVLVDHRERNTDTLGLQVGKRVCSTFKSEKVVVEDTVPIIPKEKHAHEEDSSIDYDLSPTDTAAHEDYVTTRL

Compound	EC50 [1]	EC50 (Mu-type opioid receptor)	EC50 [2]	IC50 (Bcl-2-related protein A1)	IC50 [3]	IC50 [4]	further results
COc1cc(C2C(C#N)=C(N)N(c3sc4c(c3C#N)CCCC4)C3=C2C(=O)CC(C)(C)C3)cc(OC)c1OC (centres undefined)	> 92.5 µM (inactive)	> 92.5 µM (inactive)	> 92.5 µM (inactive)				AC50 (Cytochrome P450 2C9): 12.6 µM (inconclusive)
COc1cccc(NC(=O)CSc2nc3ccccc3c(=O)n2Cc2cccs2)c1				> 20 µM (inactive)	19.3 µM (active)	> 20 µM (inactive)	
CC1=Nc2ccccc2/C1=C\c1nc(-c2ccc(F)cc2)oc1O							EC50 [5]: > 300 µM (not active); EC50 [6]: 8.82 µM (active); CC50 [7]: > 40 µM (active); EC50 [8]: 5.53 µM (active); EC50 (Streptokinase A): 16.6 µM (active); EC50 (Streptococcus): > 150 µM (not active); EC50 [9]: > 99 µM (inactive); EC50 [10]: 55.9 µM (inactive)
CN(C)C(CNC(C(=O)Nc1ccc([N+](=O)[O-])cc1Br)c1ccccc1)c1ccccc1 (centres undefined)	> 92.5 µM (inactive)	> 92.5 µM (inactive)	> 92.5 µM (inactive)				IC50 [11]: 4.94 µM (not active)
Cc1cc(O)c2c(n1)c(C)cc1[nH]c(C)c(C)c12							AC50 (ORF 73): 42.3 µM (active)
C#CCOCCOCCOCCNc1nc(N2CCN(C(=O)[C@H](CCCCN)n3cc(CN)nn3)CC2)nc(N2CCN(C(=O)[C@H](CCCCN)n3cc([C@@H](N)[C@H](C)CC)nn3)CC2)n1				> 20 µM (inactive)	4.49 µM (active)	3.13 µM (active)	
CCC(=O)C(CCN1CCOCC1)(c1ccccc1)c1ccccc1	> 92.5 µM (inactive)	12 µM (inactive)	> 92.5 µM (inactive)				EC50 [12]: 0.376 µM (active)
CCOC(=O)C1(Cc2ccccc2)CCN(Cc2cccn2-c2cccnc2)CC1	> 92.5 µM (inactive)	> 92.5 µM (inactive)	> 92.5 µM (inactive)				EC50 [12]: 0.841 µM (active)
Cc1nc(N)sc1C(=O)N/N=C/c1cccnc1				> 20 µM (inactive)	1.68 µM (active)	1.89 µM (active)	
